Source: ChEMBL document CHEMBL4339206, “Specific stabilization of DNA G-quadruplex structures with a chemically modified complementary probe” (Bioorg Med Chem, 2019)
The source made the active and inactive calls. No cut-off for these calls is given here.

Experiments:
Assay type in all cases: nucleic-acid assay
Quadruplex DNA [1] = assay: Binding affinity to HT G-quadruplex DNA (unknown origin) assessed as stabilization of parallel G-quadruplex structure at 10 to 70 uM by CD spectroscopic method
Quadruplex DNA [2] = assay: Binding affinity to HT G-quadruplex DNA (unknown origin) measured after 5 mins by UV-visible absorption titration method
Quadruplex DNA [3] = assay: Binding affinity to HT4-2 template G-quadruplex DNA (unknown origin) assessed as inhibition of polymerase progression at 2nt separation site at 20 to 100 uM using FAM-lablled primer P18 and dNTPs measured after 30 mins by phosphorimaging based taq polymerase stop assay
Quadruplex DNA [4] = assay: Binding affinity to HT4-2 template G-quadruplex DNA (unknown origin) at 55 degC
Quadruplex DNA [5] = assay: Binding affinity to HT4-2-Mut1 template G-quadruplex DNA (unknown origin) assessed as inhibition of polymerase progression at 2nt separation site at 20 to 100 uM using FAM-lablled primer P18 and dNTPs measured after 30 mins by phosphorimaging based taq polymerase stop assay
Quadruplex DNA [6] = assay: Binding affinity to HT4-2-Mut2 template G-quadruplex DNA (unknown origin) assessed as inhibition of polymerase progression at 2nt separation site at 20 to 100 uM using FAM-lablled primer P18 and dNTPs measured after 30 mins by phosphorimaging based taq polymerase stop assay
Quadruplex DNA [7] = assay: Binding affinity to HT4-2-Mut3 template G-quadruplex DNA (unknown origin) assessed as inhibition of polymerase progression at 2nt separation site at 20 to 100 uM using FAM-lablled primer P18 and dNTPs measured after 30 mins by phosphorimaging based taq polymerase stop assay
Quadruplex DNA [8] = assay: Binding affinity to HT4-2 template G-quadruplex DNA (unknown origin) assessed as primer extension stopped right before TTAGGG-repeating at 20 to 100 uM using FAM-lablled primer P18 and dNTPs measured after 30 mins in presence of marker 2 by phosphorimaging based taq polymerase stop assay

Activity (Quadruplex DNA [1]): Active
K (Quadruplex DNA [2]): 2.1 ×10⁵ /M
inhibition (Quadruplex DNA [3]): Active
Activity (Quadruplex DNA [4]): inactive
inhibition (Quadruplex DNA [5]): inactive
inhibition (Quadruplex DNA [6]): inactive
inhibition (Quadruplex DNA [7]): inactive
Activity (Quadruplex DNA [8]): Active
SMILES: [N-]=[N+]=NCCCC[N+]1(CCOc2ccc(/N=N/c3ccc(OCC[N+]4(CCCCN=[N+]=[N-])CCCCC4)cc3)cc2)CCCCC1
